The subject of the assay is Experimental Allergic Encephalomyelitis (EAE). Put plainly: Experimental Allergic Encephalomyelitis (EAE) model of multiple sclerosis. Format: in vivo. The following applies: mice, MOG35-55-induced EAE, 30 mg/Kg twice daily for 35 days. On the procedure:
EAE was induced in two groups, each of 10 mice, by subcutaneous injection into the flank of 150 μg of the encephalitogenic peptide MOG35-55 ([…]; Auspep, Melbourne, Australia) emulsified in complete Freund's adjuvant (Difco, Detroit, U.S.A.), supplemented with 4 mg/mL of Mycobacterium tuberculosis, followed by intravenous injection of 350 ng of pertussis vaccine (List Biological Laboratories, Campbell, U.S.A.), with the pertussis vaccine injection repeated after 48 hours.
Compound 1 was dissolved in 3% aqueous Tween 80 at 4mg/mL and stored at 4° C. Starting on the day of immunization with MOG35-55, the mice were treated twice daily with 30 mg/Kg of compound 1 or an equal volume of water for the 35 day duration of the experiment.
The mice were monitored daily and neurological impairment was quantified on an arbitrary scale: 0, no detectable impairment; 1, flaccid tail; 2, hind limb weakness; 3, hind limb paralysis; 4, hind limb paralysis and ascending paralysis; 5, moribund or dead.
At the end of the experiment, the mice were killed and hematoxylin and eosin stained sections of brain and spinal cord were scored blindly by two independent investigators using the following scale: 0, no inflammation; 1, few very small cellular infiltrate in the perivascular areas and meninges; 2, mild cellular infiltrate; 3, moderate cellular infiltrate; 4, severe cellular infiltrate; 5, very large and extensive cellular infiltrate.

Setting [1] is: neurological impairment scale 0-5.

On to `Cc1nn(C)c2nc(OCCN3CCCC3)c(C(=O)NC(=O)Nc3cccc(OC(C)C)c3)cc12.Cl` [Compound 1, 1-{1,3-dimethyl-6-[2-(pyrrolidin-1-yl)ethoxy]-1H-pyrazolo[3,4-b]pyridine-5-carbonyl}-3-(3-isopropoxyphenyl)urea hydrochloride], for which the “Mean onset” value turned out to be 17.2 days. Moreover, the EAE incidence (affected/total) is 5/10. Under setting [1], the Mean cumulative score amounted to 7.25 and the Mean maximum score is 1.4.

Values taken from patent publication US6962926B2, “Antagonist of MCP-1 function, and compositions and methods of use thereof” (Telik, Inc., priority 2001, dated 2005).
